Reference: US20020054872A1, “Peptides for the treatment of systemic lupus erythematosus and methods of treating systemic lupus erythematosus” (priority 1997, published 2002)
Blank lines part the entries; values can stand above or below the molecule they belong to. Residues, ends and D or L forms follow the SMILES beside them.

Key:
[1] = test system: C72 murine anti-DNA antibody; experiment: Direct binding ELISA of C72 to laminin peptides; set-up: species or system mouse; conditions: for binding of C72 murine anti-DNA antibody to laminin peptides: FIG. 1, C72 conditioned medium in various dilutions; for C72 Binding: direct binding ELISA test after one (1) hour
Protocol: (§1) The C72 murine anti-DNA antibody has been derived from (NZB×NZW)F1 lupus mice by the hybridoma technique as described in Eilat D. et al J. Immunol. […] The monoclonal anti-DNA antibodies DIL6 and B3 were derived from lupus patients by hybridoma technique as described in Ehrenstein M. R. et al J. Clin. Invest. (1994) 93 1787-1799 and Ehrenstein M. R. et al Kidney Inter. (1995) 48 705-711.
(§2) Wells were coated with 10 μg/ml of the peptides, blocked with 1% BSA (bovine serum albumin) in PBS (pH 7,4), reacted with appropriately diluted serum or urine samples or monoclonal antibodies, incubated with anti-human or anti-mouse immunoglobulin enzyme conjugated to alkaline phosphatase and detected by addition of substrate (Sigma 100 Phosphatase Substrate Tablets) and color development using an Organon Teknika Microwell System spectrometer at wavelength of 405 nm.
The interaction of the C72 murine anti-DNA antibody with laminin peptides was analyzed by ELISA as described above. The C72 conditioned medium was diluted in PBS in various dilutions.
(§3) The peptides of the present invention were tested for their ability to bind directly with C72 murine anti-DNA antibodies and B3 human anti-DNA antibodies according to the method described hereinabove.

[2] = test system: B3 human anti-DNA antibody; experiment: Direct binding ELISA of B3 to laminin peptides; conditions: FIGS. 3 and 4
Protocol: as §1, §2
(§4) The human monoclonal anti-DNA antibodies DIL 6 and B3 were derived from lupus patients by the hybridoma technique. […] In FIGS. 3 and 4, the peptides are referred to as denoted above or as follows; AS30 is R27, AS19 is R35 AS35 is R26, AS17 is R28 and AS6 is R18.
as §3

[3] = test system: human monoclonal anti-DNA antibody DIL 6; experiment: Direct binding ELISA of DIL6 to laminin peptides; conditions: FIGS. 3 and 4
Protocol: as §1, §2, §4

[4] = test system: C72 murine anti-DNA antibody; experiment: Competitive inhibition of C72 binding to 5200; set-up: species or system mouse; conditions: FIG. 2, incubation with inhibiting agent
Protocol: The binding of C72 to 5200 was tested before and after incubation with 5200, R38, R18, Heparin, DNA and DNase. […] The percent inhibition is the percent reduction of the O.D. after incubation with the inhibiting agent.

[5] = test system: murine urinary immunoglobulins; experiment: Binding of murine urinary immunoglobulins, direct binding ELISA; set-up: species or system mouse; conditions: MRL/lpr/lpr mice, pooled urine
Protocol: as §2
Thus, pooled urine from at least 5 mice (either MRL/lpr/lpr or control mice, e.g. BALB/c) was added to wells coated with R38′ (5200), R18 or DNA as described above and bound 5200 assayed by ELISA.
Each group is comprised of pooled urine.

MRL/lpr/lpr mice = experiment: Effect on clinical course of murine SLE (survival, renal histology); format: in vivo, mouse; conditions: from 6 weeks old
Protocol: To test whether R38 peptides can affect the course of SLE we have tested their effect on MRL/lpr/lpr mice disease. 60 μg of 5200 (R38′ alone or in peptide combinations, 30 μg of each) in 0.1 ml PBS, was injected i.p. to 6 week old female MLR/lpr/lpr mice once a week for 16 week and the mice were evaluated for survival (FIG. 8), and for renal histology. 50 μg of 5100 (R38) or 5300 (human R38) in 0.1 ml PBS, was injected i.p. to 6 week old MRL/lpr/lpr mice three times a week and the mice were evaluated for survival (FIG. 9), and for renal histology. Control mice received 0.1 ml phosphate buffer solution. Each test and control group contained 12-15 mice.
The survival of MRL/lpr/lpr mice treated with […], 5200 or 5300 was compared to that of PBS treated mice. […] In FIGS. 8 and 9 the time in days shown on the x axis relates to the age of the mice.

C72 antibody = experiment: Immunoabsorption of C72 on R38 column, anti-R38 ELISA; format: binding, mouse
Protocol: (§5) The R38 peptide was dissolved in the coupling buffer (0.2M NaHCO3, 0.5M NaCl, pH 8.3) in a concentration of 1 mg/ml in 5 ml coupling buffer. A 5 ml N-hydroxysuccinimide (NHS)-activated Sepharose™ High Performance Column (Pharmacia 17-0717-01) is used. The isopropanol in the column was washed out from the column with 30 ml of cold (4° C.) 1 mM HCl and 5 ml of the peptide solution was then injected onto the column with a syringe (2.5 ml/minute). The column was sealed and stood for 30 minutes at room temperature. The column was then washed with 30 ml Buffer A (0.5 M ethanolamine, 0.5 M NaCl, pH 8.3) and 30 ml Buffer B (0.5 M acetate, 0.5 M NaCl, pH 4) consecutively three times, and then with neutral pH buffer (0.05 M Na2HP04 and 0.1% NaN3).
(§6) The column was washed with 15 ml PBS (phosphate buffered saline), followed by 15 ml elution buffer (0.1 M glycine HCl) and then 50 ml PBS. The C72 antibody or the patients' plasma samples were filtered through a 0.45 microm filter. The samples were applied onto the column by a fitted syringe at a rate of 2.5 ml/min. The column was then washed with 5 ml PBS and the flow-through was applied to the column again. The binding of the samples (original and flow-through) to R38 was tested by the anti-R38 ELISA test.
(§7) In the instant example, the mouse C72 and the SLE patients' plasma were applied to the R38 column. Their anti-R38 binding was evaluated by ELISA in the original samples and in the flow-through of the column.

[6] = test system: anti-R38 antibodies in patients' plasma; experiment: Immunoabsorption of plasma on R38 column, anti-R38 ELISA; format: binding, human
Protocol: as §5, §6, §7

[7] = target: C72 murine anti-DNA antibody; experiment: competitive inhibition ELISA: C72 preincubated with peptide, binding to coated 5100 (R38)

Molecule: CC(C)C[C@H](NC(=O)[C@H](CC(=O)O)NC(=O)[C@H](CC(C)C)NC(=O)[C@H](CCCNC(=N)N)NC(=O)[C@@H](NC(=O)[C@H](CCCCN)NC(=O)[C@H](Cc1ccc(O)cc1)NC(=O)CNC(=O)[C@H](CCC(=O)O)NC(=O)[C@@H](N)CCCCN)C(C)C)C(=O)N[C@@H](CC(N)=O)C(=O)N[C@H](C(=O)N[C@H](C(=O)N[C@@H](CC(C)C)C(=O)N[C@@H](CCC(=O)O)C(=O)N[C@@H](Cc1ccccc1)C(=O)N[C@@H](CCCNC(=N)N)C(=O)N[C@H](C(=O)N[C@H](C(=O)N[C@@H](CO)C(=O)N[C@@H](CCCCN)C(=O)O)[C@@H](C)O)[C@@H](C)O)[C@@H](C)O)[C@@H](C)O (stereo in doubt) [Peptide 5200]
- binding of C72 murine anti-DNA antibody to laminin peptides [1]: binding
- binding of B3 [2]: found to bind
- binding of DIL 6 [3]: found to bind
- inhibition of the binding of C72 to 5200 [4]: inhibition
- Binding of murine urinary immunoglobulins to antigen [5]: 0.26 (*) O.D. at 405 nm
- survival (MRL/lpr/lpr mice; 60 μg i.p. once a week for 16 week, FIG. 8): significantly higher than that of control mice

Molecule: CC[C@H](C)[C@H](NC(=O)[C@H](CC(N)=O)NC(=O)[C@H](CC(C)C)NC(=O)[C@H](CC(=O)O)NC(=O)[C@H](CC(C)C)NC(=O)[C@H](CCCNC(=N)N)NC(=O)[C@@H](NC(=O)[C@H](CCCCN)NC(=O)[C@H](Cc1ccc(O)cc1)NC(=O)CNC(=O)[C@H](CCC(=O)O)NC(=O)[C@@H](N)CCCCN)C(C)C)C(=O)N[C@H](C(=O)N[C@@H](CC(C)C)C(=O)N[C@@H](CCC(=O)O)C(=O)N[C@@H](Cc1ccccc1)C(=O)N[C@@H](CCCNC(=N)N)C(=O)N[C@H](C(=O)N[C@H](C(=O)N[C@@H](CO)C(=O)N[C@@H](CCCCN)C(=O)O)[C@@H](C)O)[C@@H](C)O)[C@@H](C)O [Peptide 5100] (H-KEGYKVRLDLNITLEFRTTSK-OH; N-terminus and C-terminus assumed)
- inhibition of the binding of C72 to 5200 [4]: inhibition
- survival (MRL/lpr/lpr mice; 50 μg i.p. three times a week, FIG. 9): significantly higher than that of control mice
- Binding to R38 (O.D.) (C72 antibody; C72, after immunoabsorption on R38 column): 0.02 O.D.
- Binding to R38 (O.D.) (C72 antibody; C72, original sample): 1.96 O.D.
- anti-R38 activity removed by affinity absorption on the column (C72 antibody; mouse monoclonal C72): 99%
- Binding to R38 (O.D.) ([6]; Healthy donor's plasma, after immunoabsorption): 0.06 O.D.
- Binding to R38 (O.D.) ([6]; Healthy donor's plasma, original sample): 0.26 O.D.
- Binding to R38 (O.D.) ([6]; SLE patient 1 plasma, after immunoabsorption): 0.6 O.D.
- Binding to R38 (O.D.) ([6]; SLE patient 1 plasma, original sample): 1.5 O.D.
- Binding to R38 (O.D.) ([6]; SLE patient 2 plasma, after immunoabsorption): 1.6 O.D.
- Binding to R38 (O.D.) ([6]; SLE patient 2 plasma, original sample): 2.3 O.D.
- antibodies removed by affinity absorption on the column ([6]; human SLE patients' plasma): 30%-60%

- C72 Binding [1]: 0.08 O.D.
Molecule: CC[C@H](C)[C@H](NC(=O)[C@H](CC(N)=O)NC(=O)[C@H](CC(C)C)NC(=O)[C@H](CC(=O)O)NC(=O)[C@H](CC(C)C)NC(=O)[C@H](C)NC(=O)[C@@H](NC(=O)[C@H](C)NC(=O)[C@H](Cc1ccc(O)cc1)NC(=O)CNC(=O)[C@H](CCC(=O)O)NC(=O)[C@H](C)N)C(C)C)C(=O)N[C@H](C(=O)N[C@@H](CC(C)C)C(=O)N[C@@H](CCC(=O)O)C(=O)N[C@@H](Cc1ccccc1)C(=O)N[C@@H](C)C(=O)N[C@H](C(=O)N[C@H](C(=O)N[C@@H](CO)C(=O)N[C@@H](C)C(=O)O)[C@@H](C)O)[C@@H](C)O)[C@@H](C)O [Peptide 5104] (H-AEGYAVALDLNITLEFATTSA-OH; N-terminus and C-terminus assumed)

- C72 Binding [1]: 2.5 O.D.
Molecule: CC[C@H](C)[C@H](NC(=O)[C@H](CC(N)=O)NC(=O)[C@H](CC(C)C)NC(=O)[C@H](CC(=O)O)NC(=O)[C@H](CC(C)C)NC(=O)[C@H](CCCNC(=N)N)NC(=O)[C@@H](NC(=O)[C@H](CCCCN)NC(=O)[C@H](Cc1ccc(O)cc1)NC(=O)CNC(=O)[C@H](CCC(=O)O)NC(=O)[C@@H](N)CCCCN)C(C)C)C(=O)N[C@H](C(=O)N[C@@H](CC(C)C)C(=O)N[C@@H](C)C(=O)N[C@@H](Cc1ccccc1)C(=O)N[C@@H](CCCNC(=N)N)C(=O)N[C@H](C(=O)N[C@H](C(=O)N[C@@H](CO)C(=O)N[C@@H](CCCCN)C(=O)O)[C@@H](C)O)[C@@H](C)O)[C@@H](C)O [Peptide 5110] (H-KEGYKVRLDLNITLAFRTTSK-OH; N-terminus and C-terminus assumed)

- inhibition of the binding of C72 to 5200 [4]: inhibition
Molecule: DNA [reference compound]

Molecule: DNase [reference compound]
- inhibition of the binding of C72 to 5200 [4]: not by a control peptide or treatment with DNase

- binding of C72 murine anti-DNA antibody to laminin peptides [1]: binding
Molecule: KATPMLKMRTSFHGCIK [Peptide R37, residues 2615-2631 of mouse laminin α chain]

- binding of C72 murine anti-DNA antibody to laminin peptides [1]: binding
Molecule: KQNCLSSRASFRGCVRNLRLSR [Peptide R30, residues 3011-3032 of mouse laminin α chain]

- inhibition of the binding of C72 to 5200 [4]: inhibition
Molecule: heparin [reference compound]

- IC50 [7]: 10 µg/mL
Molecule: KEGYKVRLDLNITLEFRTTSK [R38 peptide (5100), mouse laminin alpha chain residues 2890-2910]

- IC50 [7]: 85 µg/mL
Molecule: KEGYKVRLDLNITLEFETTSK [5107 peptide, charge subst. to neg. at 5100 a.a. 17]

- IC50 [7]: 0.7 µg/mL
Molecule: KEGYKVRLDLNITLAFRTTSK [5110 peptide, Ala subst. of 5100 a.a. 15]

- IC50 [7]: 0.7 µg/mL
Molecule: KEGYKVRLALNITLEFRTTSK [5109 peptide, Ala subst. of 5100 a.a. 9]

- IC50 [7]: 5 µg/mL
Molecule: KEGYKVRLDLNITLEF [5101 peptide, Res. 1-16 of 5100]

- IC50 [7]: 10 µg/mL
Molecule: KEGYKVRLDLNTTLEFRTTSK [5200 peptide, mouse R38 analog]

- IC50 [7]: 30 µg/mL
Molecule: VRLDLNITLEFR [5102 peptide, Res. 6-17 of 5100]

- IC50 [7]: 2 µg/mL
Molecule: KAGYKVRLALNITLAFRTTSK [5108 peptide, Ala subst. of 5100 at all negative a.a.]

- IC50 [7]: 2.5 µg/mL
Molecule: KEGYKVELDLNITLEFRTTSK [5106 peptide, charge subst. to neg. at 5100 a.a. 7]
